For 26 molecules, IC50 results are on record in US8273900B2, “Organic compounds” (Novartis AG, priority 2008, dated 2012).

pIC50: −log10 of the molar value. Structures can show the parent of a compound that is named as a salt.

The target of this assay is T1, human recombinant CRF-1 receptor (Homo sapiens, UniProt P34998).
T1 construct: expressed in transfected cells; host or cells: CHO cells (G418-selected)
T1 sequence (P34998 24-415): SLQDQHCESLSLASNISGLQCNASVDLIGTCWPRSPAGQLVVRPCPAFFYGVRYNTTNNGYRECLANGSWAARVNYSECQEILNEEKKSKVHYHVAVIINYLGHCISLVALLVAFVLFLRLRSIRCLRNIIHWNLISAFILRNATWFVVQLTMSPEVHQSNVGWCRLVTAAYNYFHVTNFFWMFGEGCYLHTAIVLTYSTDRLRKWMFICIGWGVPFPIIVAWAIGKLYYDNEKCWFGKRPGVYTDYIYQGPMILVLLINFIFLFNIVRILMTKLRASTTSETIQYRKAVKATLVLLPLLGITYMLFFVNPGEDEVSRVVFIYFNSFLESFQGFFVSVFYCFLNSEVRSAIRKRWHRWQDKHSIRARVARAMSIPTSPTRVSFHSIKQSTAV
The assay is described as follows: CRF-1 receptor antagonism, HTRF cAMP assay in CHO cells in the presence of 1 nM CRF. The assay is classed as cell-based. As to conditions: CHO cells expressing human recombinant CRF-1; inhibition of the effect of 1 nM CRF on cAMP. The procedure: The CRF-1 or CRF-2α receptor antagonistic activity of the agents of the invention has been determined in vitro in the following assay:
Chinese hamster ovary (CHO) cells expressing either the human recombinant CRF-1 or CRF-2a receptors (Chen et al., Proc Natl Acad Sci USA 90, 8967-8971, 1993; Liaw et al., Endocrinology 137, 72-77, 1996) are propagated in Dulbecco's modified Eagle medium supplemented with 10% foetal calf serum, non-essential amino acids, 100 U/ml penicillin, 100 mg/l streptomycin and 1 g/l geneticin (G418). For cyclic AMP determinations the Homogeneous Time-Resolved Fluoresce (HTRF) cAMP dynamic 2 kit (Cisbio International, France) was used as per manufacturers' instructions. CHO cells, previously cryopreserved, were thawed, centrifuged for 7 mins at 1200 rpm and resuspended in serum free media, then pipetted out onto clear bottomed black tissue culture treated 384-well microtitre plates (Corning Inc, US) at 2,000 cells per well. Compounds of the invention, prepared in DMSO, and subsequently diluted 50 fold in assay buffer (1× Hanks balanced salt solution, 0.2% (w/v) bovine serum albumin, 1.7 mM isobutylmethylxanthine and 10 mM Hepes, pH 7.4) are then added onto the cell containing plate where a further 2 fold dilution is performed and incubated for 15 min. Following incubation, buffer containing a 5 times final concentration of agonist is added to the plate and incubated for 30 min. Finally, d2 dye labelled cAMP and cryptate labeled anti-cAMP antibody, both made in lysis buffer, are added to the plate followed by a settling period of 1 hour. During the settling period cAMP produced by the cells competes with the d2 labelled cAMP for the anti-cAMP cryptate. The plate is read on the Pherastar (BMG, Germany). Increasing levels of endogenous cAMP produced by cells can be followed by a decrease of fluorescent signal and vice versa. Values represented by a change in arbitrary fluorescence units are converted into cAMP concentrations by use of a standard curve the reagents for which are supplied with the kit. Antagonist dose response curves (1 nM-30 μM) are constructed in the presence of 1 nM CRF. IC50 values of antagonists are calculated by fitting the percent inhibition of the effect of CRF by increasing concentrations of the antagonists. The fit is performed using the nonlinear logistic function of the Activitybase software package v 5.4.5.27 (IDBS, UK).
On to `Cc1ncccc1NC[C@H]1CC[C@H](NC(=O)c2cc(C(F)(F)F)ccc2Cl)CC1` [Example 1.13, Trans-2-Chloro-N-{4-[(2-methyl-pyridin-3-ylamino)-methyl]-cyclohexyl}-5-trifluoromethyl-benzamide], for which the pIC50 is 7.72. In the case of `O=C(N[C@H]1CC[C@H](CNc2n[nH]c3cccnc23)CC1)c1cc(C(F)(F)F)ccc1Cl` [Example 19.93, Trans-N-(4-((1H-pyrazolo [4,3-b]pyridin-3-ylamino)methyl)cyclohexyl)-2-chloro-5-(trifluoromethyl) benzamide], the pIC50 was 7.16. On to `Cc1nc(NC[C@H]2CC[C@H](NC(=O)c3cc(C(F)(F)F)ccc3Cl)CC2)sc1C` [Example 3, Trans-2-chloro-N-{4-[(4,5-dimethyl-thiazol-2-ylamino)-methyl]-cyclohexyl}-5-trifluoromethyl-benzamide], for which the pIC50 was 7.22. With `O=C(N[C@H]1CC[C@@H](CNc2cc(-c3ccc(F)cc3)n[nH]2)CC1)c1cc(C(F)(F)F)ccc1Cl` [Example 14, Cis-2-Chloro-N-(4-{[5-(4-fluoro-phenyl)-2H-pyrazol-3-ylamino]-methyl}-cyclohexyl)-5-trifluoromethyl-benzamide], the pIC50 is 5.49. As to `COc1ncc(Cl)cc1NC[C@H]1CC[C@H](NC(=O)c2cc(C(F)(F)F)ccc2Cl)CC1` [Example 19.113, Trans-2-Chloro-N-{4-[(5-chloro-2-methoxy-pyridin-3-ylamino)-methyl]-cyclohexyl}-5-trifluoromethyl-benzamide], the pIC50 is 6.82. As to `O=C(N[C@H]1CC[C@H](CNc2n[nH]c3ccc(Cl)cc23)CC1)c1cc(C(F)(F)F)ccc1Cl` [Example 19.66, Trans-2-chloro-N-(4-((5-chloro-1H-indazol-3-ylamino)methyl)cyclohexyl)-5-(trifluoromethyl) benzamide], the pIC50 is 7.21. On to `Cc1ccc2[nH]nc(NC[C@H]3CC[C@H](NC(=O)c4cc(C(F)(F)F)ccc4Cl)CC3)c2c1` [Example 19.59, Trans-2-chloro-N-(4-((5-methyl-1H-indazol-3-ylamino)methyl)cyclohexyl)-5-(trifluoromethyl) benzamide], for which the pIC50 was 7.06. On to `Cc1nc(NC[C@H]2CC[C@H](NC(=O)c3cc(Cl)cnc3Cl)CC2)sc1C` [Example 1.18, Trans-2,5-Dichloro-N-{4-[(4,5-dimethyl-thiazol-2-ylamino)-methyl]-cyclohexyl}-nicotinamide], for which the pIC50 was 7.51. Regarding `Cc1cc(NC[C@H]2CC[C@H](NC(=O)c3cc(C(F)(F)F)ccc3Cl)CC2)ncc1Cl` [Example 19.69, Trans-2-chloro-N-(4-((5-chloro-4-methylpyridin-2-ylamino)methyl)cyclohexyl)-5-(trifluoromethyl) benzamide], the pIC50 was 7.66. Consider `Cc1[nH]nc(NC[C@H]2CC[C@H](NC(=O)c3cc(C(F)(F)F)ccc3Cl)CC2)c1-c1ccc(Cl)cc1` [Example 19.91, Trans-2-chloro-N-(4-((4-(4-chlorophenyl)-5-methyl-1H-pyrazol-3-ylamino)methyl)cyclohexyl)-5-(trifluoromethyl) benzamide], for which the pIC50 was 7.24. With `CCCc1[nH]nc(NC[C@H]2CC[C@H](NC(=O)c3cc(C(F)(F)F)ccc3Cl)CC2)c1Br` [Example 19.76, Trans-N-(4-((4-bromo-5-propyl-1H-pyrazol-3-ylamino)methyl)cyclohexyl)-2-chloro-5-(trifluoromethyl) benzamide], the negative logarithm of the IC50 (pIC50) was 7.11. Next, `O=C(N[C@H]1CC[C@H](CNCc2cc(-c3ccccc3)on2)CC1)c1cc(C(F)(F)F)ccc1Cl` [Example 2.35, Trans-2-Chloro-N-(4-{[(5-phenyl-isoxazol-3-ylmethyl)-amino]-methyl}-cyclohexyl)-5-trifluoromethyl-benzamide]: 6.46.

Turning to `CCCc1cc(NC[C@H]2CC[C@H](NC(=O)c3cc(Cl)cnc3C)CC2)n[nH]1` [Example 19.110, Trans-2-Chloro-2 methyl-N-{4-[(5-propyl-1H-pyrazol-3-ylamino)-methyl]-cyclohexyl}-nicotinamide], the pIC50 was 7.01. Next, `Cc1ncc(Cl)cc1C(=O)N[C@H]1CC[C@H](Cn2nc(C(F)(F)F)cc2C)CC1` [Example 22.7, Trans-5-Chloro-2-methyl-N-[4-(5-methyl-3-trifluoromethyl-pyrazol-1-ylmethyl)-cyclohexyl]-nicotinamide]: 6.73; `Cc1ncc(NC[C@H]2CC[C@H](NC(=O)c3cc(C(F)(F)F)ccc3Cl)CC2)cc1Cl` [Example 19.75, Trans-2-chloro-N-(4-((5-chloro-6-methylpyridin-3-ylamino)methyl)cyclohexyl)-5-(trifluoromethyl) benzamide]: 7.27. In the case of `Cc1cc(C)nc(NC[C@H]2CC[C@H](NC(=O)c3cc(C(F)(F)F)ccc3Cl)CC2)c1` [Example 2.6, Trans-2-Chloro-N-{4-[(4,6-dimethyl-pyridin-2-ylamino)-methyl]-cyclohexyl}-5-trifluoromethyl-benzamide], the pIC50 was 6.67. Take `Cc1n[nH]c(NC[C@H]2CC[C@H](NC(=O)c3cc(C(F)(F)F)ccc3Cl)CC2)c1Cl` [Example 19.114, Trans-2-Chloro-N-{4-[(4-chloro-5-methyl-2H-pyrazol-3-ylamino)-methyl]-cyclohexyl}-5-trifluoromethyl-benzamide]: the pIC50 is 7.47. The value for `Cc1ccc(NC[C@H]2CC[C@H](NC(=O)c3cc(C(F)(F)F)ccc3Cl)CC2)nc1` [Example 2.8, Trans-2-Chloro-N-{4-[(5-methyl-pyridin-2-ylamino)-methyl]-cyclohexyl}-5-trifluoromethyl-benzamide] was 7.18. The value for `O=C(N[C@H]1CC[C@H](CNc2ccccc2)CC1)c1cc(C(F)(F)F)ccc1Cl` [Example 4.33, Trans-2-Chloro-N-(4-phenylaminomethyl-cyclohexyl)-5-trifluoromethyl-benzamide] was 7.30; that for `O=C(N[C@H]1CC[C@H](Cn2ncc3ccccc32)CC1)c1cc(C(F)(F)F)ccc1Cl` [Example 21.1, N-(4-((1H-indazol-1-yl)methyl)cyclohexyl)-2-chloro-5-(trifluoromethyl) benzamide] was 6.94. With `CN(C)Cc1ccc(NC[C@H]2CC[C@H](NC(=O)c3cc(C(F)(F)F)ccc3Cl)CC2)nc1` [Example 1.34, Trans-2-Chloro-N-{4-[(5-dimethylaminomethyl-pyridin-2-ylamino)-methyl]-cyclohexyl}-5-trifluoromethyl-benzamide hydrochloride], the pIC50 is 5.91. The value for `Cc1nn(C[C@H]2CC[C@H](NC(=O)c3cc(C(F)(F)F)ccc3Cl)CC2)c(C)c1Cl` [Example 21.8, 2-Chloro-N-[4-(4-chloro-3,5-dimethyl-pyrazol-1-ylmethyl)-cyclohexyl]-5-trifluoromethyl-benzamide] was 6.95; that for `O=C(N[C@H]1CC[C@H](Cn2ccc(N3CCNC3=O)n2)CC1)c1cc(C(F)(F)F)ccc1Cl` [Example 6, Trans-2-chloro-N-(4-((3-(2-oxoimidazolidin-1-yl)-1H-pyrazol-1-yl)methyl)cyclohexyl)-5-(trifluoromethyl)benzamide] was 7.05. The value for `O=C(N[C@H]1CC[C@H](CNc2n[nH]c3ncccc23)CC1)c1cc(C(F)(F)F)ccc1Cl` [Example 19.57, Trans-N-(4-((1H-pyrazolo[3,4-b]pyridin-3-ylamino)methyl)cyclohexyl)-2-chloro-5-(trifluoromethyl) benzamide] was 7.06; that for `O=C(N[C@H]1CC[C@H](CNc2n[nH]c3cccc(F)c23)CC1)c1cc(C(F)(F)F)ccc1Cl` [Example 19.63, Trans-2-chloro-N-(4-((4-fluoro-1H-indazol-3-ylamino)methyl)cyclohexyl)-5-(trifluoromethyl) benzamide] was 7.77; that for `Cc1cncc(NC[C@H]2CC[C@H](NC(=O)c3cc(C(F)(F)F)ccc3Cl)CC2)c1` [Example 10, Trans-2-chloro-N-(4-((5-methylpyridin-3-ylamino)methyl)-cyclohexyl)-5-(trifluoromethyl)benzamide] was 7.39.
